Earlier results, collected in US10835585B2, “Shared neoantigens” (priority 2015, dated 2020).

Experiments:
[1] = tested on: serum prostate specific antigen (PSA); settings: advanced hormone refractory prostate cancer; personalized vaccination combined with a low dose of estramustine
healthy human volunteers = settings: 8 healthy volunteers, one single s.c. administration, versus 4 placebo subjects; whole blood
[2] = tested on: ovarian carcinoma patients
[3] = more than 25 clinical trials

Compound	patients with ≥50% decrease in serum prostate specific antigen (PSA) [1]	differential expression of genes versus placebo (healthy human volunteers)	generation of NY-ESO-1-specific CD4+ and CD8+ T-cell and antibody responses ([2]; 1.4 mg poly-ICLC and Montanide added to OLP, compared to OLP alone or OLP and Montanide, s.c.)	patients showing induction of CD4+ and CD8+ T cell, as well as antibody responses to the peptide ([2]; ovarian carcinoma patients, poly-ICLC with NY-ESO-1 peptide vaccine and Montanide, phase 1)	toxicity profile [3]
C[C@]12CC[C@@H]3c4ccc(OC(=O)N(CCCl)CCCl)cc4CC[C@H]3[C@@H]1CC[C@@H]2O [estramustine]	54%				
Polyinosinic-Polycytidylic Acid-poly-L-lysine Carboxymethylcellulose [poly-ICLC]		up to 212 genes	markedly enhanced	> 90%	relatively benign toxicity profile
